Experimental data reported in article PMC3929664, “A Panel of Diverse Assays to Interrogate the Interaction between Glucokinase and Glucokinase Regulatory Protein, Two Vital Proteins in Human Disease” (PLoS ONE, 2014).
Counter-ions that a name gives are not always drawn.

Target: T1, GCK enzymatic reaction inhibited by GKRP (recombinant human GCK and GKRP) (Homo sapiens, UniProt P35557+Q14397)
T1 construct: made in house
T1 sequence (P35557 1-465): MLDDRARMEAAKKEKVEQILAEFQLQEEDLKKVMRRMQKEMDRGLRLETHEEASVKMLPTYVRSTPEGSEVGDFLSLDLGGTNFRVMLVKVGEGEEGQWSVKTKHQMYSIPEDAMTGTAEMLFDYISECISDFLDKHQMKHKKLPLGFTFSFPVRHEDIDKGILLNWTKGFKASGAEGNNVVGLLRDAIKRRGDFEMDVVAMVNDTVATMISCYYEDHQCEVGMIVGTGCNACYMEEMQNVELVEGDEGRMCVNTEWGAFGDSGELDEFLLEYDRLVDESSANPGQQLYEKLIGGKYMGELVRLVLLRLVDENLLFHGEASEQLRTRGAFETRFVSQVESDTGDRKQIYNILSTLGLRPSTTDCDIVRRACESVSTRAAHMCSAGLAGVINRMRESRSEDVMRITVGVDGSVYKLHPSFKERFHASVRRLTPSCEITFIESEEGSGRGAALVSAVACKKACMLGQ
T1 sequence (Q14397 1-625): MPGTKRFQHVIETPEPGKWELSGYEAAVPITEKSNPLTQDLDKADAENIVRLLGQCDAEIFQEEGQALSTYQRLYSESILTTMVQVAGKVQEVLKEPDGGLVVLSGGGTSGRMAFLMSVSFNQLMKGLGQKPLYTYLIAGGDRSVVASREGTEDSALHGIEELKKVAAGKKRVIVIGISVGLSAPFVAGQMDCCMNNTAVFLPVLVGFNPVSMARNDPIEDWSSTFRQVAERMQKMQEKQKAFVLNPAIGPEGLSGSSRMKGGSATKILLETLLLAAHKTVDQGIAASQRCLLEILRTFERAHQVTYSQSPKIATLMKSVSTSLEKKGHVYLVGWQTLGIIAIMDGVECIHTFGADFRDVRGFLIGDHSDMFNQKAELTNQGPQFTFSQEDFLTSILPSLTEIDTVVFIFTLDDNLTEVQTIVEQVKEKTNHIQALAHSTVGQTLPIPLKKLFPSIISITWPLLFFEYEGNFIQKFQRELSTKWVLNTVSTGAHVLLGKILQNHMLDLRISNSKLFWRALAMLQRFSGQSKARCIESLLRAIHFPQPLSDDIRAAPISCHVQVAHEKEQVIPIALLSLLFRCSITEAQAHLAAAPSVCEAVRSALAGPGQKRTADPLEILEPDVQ
Experiment: Bioluminescence assay (ADP-Glo) of the GCK enzyme reaction with GKRP
Assay type: biochemical
Settings: for LOPAC1280 screen outcome: 2 µM S6P; for response across formats (ADP only, GCK only, GCK-GKRP): 0.04 mM ADP, 4 nM GCK, 15 nM GCK with 15 nM GKRP
Experimental: A luminescence-based assay was developed for detection of ADP generation by recombinant GST-GCK (ADP-Glo™ Kinase Assay; Promega). Final reaction conditions included 25 mM HEPES, 25 mM KCl, 2 mM MgCl2, 1 mM DTT, 0.025% BSA, 0.01% Tween-20, 5 mM glucose, and concentrations of GST-GCK and FLAG-GKRP as indicated, and the reaction was initiated by addition of ATP to a final concentration of 0.4 mM. The reaction was terminated and luminescence generated using ADP-Glo™ Reagent and Kinase Detection Reagent (both Promega). In 1536-well plate format, luminescence enzyme assay buffer was dispensed (2 µl/well) using a BioRAPTR into white 1536-well medium binding plates and initiated by addition of 1 µl 1.2 mM ATP. After lidded incubation for the times indicated at room temperature, 2.5 µl of ADP-Glo™ Reagent was added to each well and plates were incubated with lidding for 60 minutes at room temperature. Following 5 µl addition per well of Kinase Detection Reagent, plates were incubated with lidding for a further 30 minutes at room temperature before luminescent detection using a ViewLux Microplate Imager (PerkinElmer). For the LOPAC^1280 library screen, column 1 was all components with DMSO (maximum signal) and column 3 was no GCK with DMSO (minimum signal). These two control columns were used for data normalization. The final HTS protocol is in Table S3, and the data have been deposited in PubChem (AID 743206).
S6P, F1P, and glucose were dissolved in water; GKAs were dissolved in DMSO.
The firefly luciferase enzyme utilizes luciferin and ATP to generate bioluminescence, and the coupling of ATP-dependent kinases to luciferase activity has enabled kinase activity to be measured quantitatively by luminescence measurements in high-throughput screens. The ADP-Glo™ assay, utilizing a two-step luciferase-based ADP-detection protocol, was employed to measure GCK activity ( Figure 1C ). Initial validation was carried out in 384-well plate format, and focused on GCK in the absence of GKRP to test suitability of the ADP-Glo™ format for the GCK enzyme. A titration of 14 GCK concentrations (1.5–100 nM; n = 8 for each concentration) was assessed at 5 mM glucose and 0.4 mM ATP at pH 7.4. The reaction was incubated for 45 minutes at room temperature. To estimate percent conversion of ATP to ADP, mixtures of ATP and ADP (total concentration 0.4 mM) were tested in duplicate, containing 0, 3, 5, 10, 30, 50, 70, and 100% ADP. The luminescence value at 10% ADP corresponded to the luminescence generated by 4 nM GCK (Figure S7). The ADP-Glo™ kit is linear throughout the range tested and provides an excellent range of detection.
The effects of GKRP inhibition were then assessed using the same reaction conditions at pH 7.1. ADP generation was measured using a matrix of five concentrations each of GCK and GKRP (0, 5, 10, 15, and 20 nM) in quadruplicate ( Figure 5A ). Reactions were incubated for 75 minutes. Luminescence of 15 nM GCK was reduced by approximately 60% by 15 nM GKRP, and the mean S/B at 15 nM GCK +15 nM GKRP was 3.7.
Accordingly, the bioluminescence reaction was capable of measuring GCK enzymatic activity and its inhibition by GKRP. We therefore pursued miniaturization of the assay to 1536-well plate format and tested the effects of S6P and F1P in three different assay formats: 0.04 mM ADP in the absence of GCK and GKRP, 4 nM GCK, and 15 nM GCK with 15 nM GKRP ( Figure 5B ). All assays provided robust luminescence signal in the absence of F1P or S6P (S/B >4.0).

| EC50 (15 nM GCK, 15 nM GKRP, 75 minutes, mean ± SD, read-out: EC50 (activation of GCK enzymatic reaction, increase in luminescence)) [nM] | response across formats (ADP only, GCK only, GCK-GKRP) | IC50 (15 nM GCK, 15 nM GKRP, 75 minutes, mean ± SD, read-out: IC50 (decrease in luminescence)) [nM] | SMILES | LOPAC1280 screen outcome (15 nM GCK, 15 nM GKRP) |
| --- | --- | --- | --- | --- |
|  |  |  | O=C(O)C1=CC(=C(c2ccc(O)c(C(=O)O)c2)c2ccc(O)c(C(=O)O)c2)C=CC1=O [ATA, aurintricarboxylic acid] | inhibitors of the GCK-GKRP interaction |
| 1000 ± 200 | dependent on the presence of GKRP |  | O=C(COP(=O)(O)O)[C@@H](O)[C@H](O)[C@H](O)CO [F1P, fructose 1-phosphate] |  |
|  | dependent on the presence of GKRP | 5 ± 0.6 | O=P(O)(O)OC[C@@H](O)[C@@H](O)[C@H](O)[C@@H](O)CO [S6P, sorbitol 6-phosphate] |  |
|  |  |  | Cc1ccc(C(=O)Nc2ccc(S(=O)(=O)O)c3cc(S(=O)(=O)O)cc(S(=O)(=O)O)c23)cc1NC(=O)c1cccc(NC(=O)Nc2cccc(C(=O)Nc3cc(C(=O)Nc4ccc(S(=O)(=O)O)c5cc(S(=O)(=O)O)cc(S(=O)(=O)O)c45)ccc3C)c2)c1 [suramin sodium salt] | inhibitors of the GCK-GKRP interaction |
